Results as given in publication PMC8954547, “Nonpeptidic Z360-Analogs Tagged with Trivalent Radiometals as Anti-CCK2R Cancer Theranostic Agents: A Preclinical Study” (Pharmaceutics, 2022).

Legend:
[1] = test system: SCID mice bearing twin HEK293-CCK2i4svR and wtHEK293 tumors; assay: Biodistribution in SCID mice bearing twin HEK293-CCK2i4svR and wtHEK293 xenografts; assay type: in vivo
Summary of the method: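 Uptake is expressed as %IA/g (mean ± SD, n = 4) from gamma counting of blood, organs and tumours collected at set times: 1, 4 and 24 h pi for ^67Ga, 4 and 24 h for ^111In (±gelofusine), 4–96 h for ^177Lu. Radioligands were given iv at 7–40 pmol to SCID mice bearing twin CCK2i4svR-transfected and wild-type HEK293 xenografts.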

[2] = test system: HEK293-CCK2i4svR and wtHEK293 xenografts; assay: SPECT/CT of HEK293-CCK2i4svR and wtHEK293 xenografts; assay type: in vivo, mice; conditions: 4 h and 24 h pi
Protocol: For SPECT/CT imaging, six mice bearing twin HEK293-CCK2i4svR and wtHEK293 tumors were injected in the tail vein with a bolus containing [^111In]In-GAS1/2/3 (100 μL, 9–12 MBq associated with 3 nmol total injected analog in-vehicle: saline/EtOH 9/1 v/v). Mice were euthanized at 4 h and 24 h pi. Tomographic SPECT/CT imaging was performed with the y-CUBE/x-CUBE systems (Molecubes, Belgium). The SPECT system is based on monolithic NaI detectors attached to SiPMs, with a 0.6 mm intrinsic resolution. The CT system is based on a structured CMOS detector of CsI with pixels of 75 µm and operates between 35–80 kVp, 10–500 µA tube current, with a 33 µm fixed focal spot size. SPECT scans were acquired 4 h pi and 24 h pi, with a 40–50 min duration protocol based on the injected activity, and each SPECT scan was succeeded by a CT scan, following General-Purpose protocol under 50 kVp, for co-registration purposes. SPECT images were reconstructed using the MLEM reconstruction method with a 250 µm voxel size and 500 iterations. CT images were reconstructed using the ISRA reconstruction method with a 100 µm voxel size.
Images were exported and post-processed on VivoQuant software, version 4.0 (Invicro, Boston). A smoothing median filter (0.6 mm, spherical window) was applied to the images, and the bladder was removed for consistency purposes. Normalization of images was performed (i.e., all images having the same color scale range values) to achieve a direct visual comparison between the different groups.

HEK293-CCK2i4svR cells = assay: Radioligand uptake and internalization in HEK293-CCK2i4svR cells; assay type: cell-based, human; conditions: for Internalized fraction / Cell uptake (internalized + membrane-bound): 1 h 37 °C, specific; for Cell uptake (internalized + membrane-bound): of total added activity
Protocol: A day before the experiment, HEK293-CCK2i4svR cells were seeded in six-well plates. The next day, cells were rinsed with ice-cold internalization medium (IM: DMEM Glutamax-I, supplemented by 1% (v/v) FBS) and then the fresh medium was added (1.2 mL) at 37 °C. A further portion of IM (150 µL) was added in the upper well-row, and DG2 solution in IM (150 µL) was added in the lower row (to a final concentration of 1 μM; non-specific series). Each of the test radioligands, [^67Ga]Ga/[^111In]In/[^177Lu]Lu-GAS1/3 and [^67Ga]Ga/[^111In]In-GAS2, was finally added (250 fmol total conjugates in 150 μL 0.5% BSA-PBS) in all the wells and the plates were incubated at for 1 h at 37 °C in an Incubator-Orbital Shaker unit (MPM Instr. SrI, Bernareggio, MI, Italy); [^111In]In-GAS1/2/3 were incubated for 15 min, 30 min, 1 h and 2 h. At the predetermined time points, the plates were placed on ice, the medium was collected, and the plates were rinsed with 0.5% BSA-PBS (1 mL). Cells were subsequently treated with an acid-wash solution (2 × 600 µL; 50 mM glycine buffer pH 2.8, 0.1 M NaCl) and the fractions collected (membrane-bound). After briefly washing with 0.5% BSA-PBS (1 mL), the cells were lysed with 1 N NaOH (2 × 600 µL), and the fractions were collected (internalized). The radioactivity content of collected fractions was counted in the gamma counter, and the percentage of internalized and membrane-bound fractions per time point were calculated with Microsoft Excel. Specific internalized and membrane-bound counts were determined by subtracting the respective non-specific (in the presence of 1 μM DG2) from the respective total counts. Results represent specific internalized/membrane bound ± SD of total added radioactivity per well from three experiments performed in triplicate.

[3] = Radioligand stability in mice (radio-HPLC of blood and urine); assay type: in vivo; conditions: mean ± SD
Protocol: The formation of radiometabolites which can be detected in the blood was tested in blood samples collected 5 min post-injection (pi) of each of the radioligands [^67Ga]Ga/[^111In]In/[^177Lu]Lu-GAS1/3 and [^67Ga]Ga/[^111In]In-GAS2. For this study, in-house male Swiss albino mice (body weight: 30 ± 5 g, provided by the NCSR “Demokritos” Animal House) were used in groups of three. The animals received, through the tail vein, a 100-μL bolus containing each radioligand tested (2.5–3 nmol of the total conjugate in vehicle: saline/EtOH 9/1 v/v, corresponding to: up to 11 MBq for In-111, up to 13 MBq for Ga-67 and up to 74 MBq for Lu-177). Mice were euthanized, and blood was collected directly from the heart using a prechilled penicillin syringe and transferred in a prechilled EDTA-containing Eppendorf Protein LoBind® tube on ice (40 µL, 50 mM Na2EDTA solution). After centrifugation (10 min, 2000× g/4 °C, in a Hettich, Universal 320R, centrifuge), the blood plasma was collected, mixed with chilled MeCN in a 1/1 v/v ratio and centrifuged again (10 min, 15,000× g/4 °C). Supernatants were collected and concentrated to a small volume (≈50–100 μL) under a gentle N2-flux at 40 °C. They were then diluted with physiological saline (≈400 μL) and filtered through a Millex GV filter (0.22 μm, 13 mm Ø, Millipore, Milford, CT, USA). Aliquots of the filtrate were analyzed by radio-RP-HPLC using a Waters Symmetry Shield RP18 cartridge column (5 μm, 3.9 mm × 20 mm) eluted at a flow rate of 1.0 mL/min with the following gradient: 100% A/0% B to 55% A/45% B in 45 min; A = 0.1% aqueous TFA (v/v) and B = MeCN (system 2). The elution time (tR) of each parent radioligand was determined by coinjection of blood samples with an aliquot of the labeling solution on the HPLC column. Results were calculated as the average percentage of intact radioligand ± SD derived from three independent experiments.
Following the same injection protocol, radioligands were administered in additional groups of mice, but this time animals were euthanized 30 min pi. The urine was immediately collected from the bladder using a prechilled syringe and transferred as before in a prechilled EDTA-containing Eppendorf Protein LoBind® centrifuge tube on ice (40 µL, 50 mM Na2EDTA solution) and 0.1 mL of physiological saline. Urine proteins were precipitated by adding chilled MeCN in a 1/1 v/v ratio followed by a 10 min centrifugation step (15,000× g/4 °C). The supernatant was then collected and treated following the blood sample workup procedure. Aliquots of the Millex-GV filtrate (containing >90% of total urine activity) were analyzed by radio-HPLC, adopting the aforementioned conditions. Results were calculated as the average percentage of intact radioligand ± SD derived from three independent experiments.

CC(C)(C)C(=O)CN1C(=O)[C@H](NC(=O)Nc2cccc(C(=O)NCCOCCOCCOCCNC(=O)[C@@H](CCC(=O)O)NC(=O)CCC(C(=O)O)N3CCN(CC(=O)[O-])CCN(CC(=O)[O-])CCN(CC(=O)[O-])CC3)c2)CN(C2CCCCC2)c2ccccc21.[111In+3] (some centres unmarked) [[^111In]In-GAS3]
Biodistribution, Blood ([1]; 4 h pi): 2.42 ± 0.94 %IA/g
Biodistribution, CCK2i4svR(+) Tumor ([1]; 4 h pi): 19.83 ± 1.35 %IA/g
Biodistribution, CCK2i4svR(-) Tumor ([1]; 4 h pi): 0.85 ± 0.37 %IA/g
Biodistribution, Femur ([1]; 4 h pi): 0.60 ± 0.14 %IA/g
Biodistribution, Heart ([1]; 4 h pi): 0.81 ± 0.28 %IA/g
Biodistribution, Intestines ([1]; 4 h pi): 1.66 ± 0.33 %IA/g
Biodistribution, Kidneys ([1]; 4 h pi): 9.32 ± 0.68 %IA/g
Biodistribution, Liver ([1]; 4 h pi): 2.78 ± 0.27 %IA/g
Biodistribution, Lungs ([1]; 4 h pi): 1.36 ± 0.37 %IA/g
Biodistribution, Muscle ([1]; 4 h pi): 0.31 ± 0.13 %IA/g
Biodistribution, Pancreas ([1]; 4 h pi): 0.86 ± 0.23 %IA/g
Biodistribution, Spleen ([1]; 4 h pi): 0.69 ± 0.12 %IA/g
Biodistribution, Stomach ([1]; 4 h pi): 0.91 ± 0.39 %IA/g
Biodistribution, Blood ([1]; 24 h pi): 0.08 ± 0.01 %IA/g
Biodistribution, CCK2i4svR(+) Tumor ([1]; 24 h pi): 11.53 ± 1.93 %IA/g
Biodistribution, CCK2i4svR(-) Tumor ([1]; 24 h pi): 0.40 ± 0.21 %IA/g
Biodistribution, Femur ([1]; 24 h pi): 0.27 ± 0.09 %IA/g
Biodistribution, Heart ([1]; 24 h pi): 0.16 ± 0.02 %IA/g
Biodistribution, Intestines ([1]; 24 h pi): 0.48 ± 0.14 %IA/g
Biodistribution, Kidneys ([1]; 24 h pi): 4.15 ± 1.06 %IA/g
Biodistribution, Liver ([1]; 24 h pi): 1.07 ± 0.26 %IA/g
Biodistribution, Muscle ([1]; 24 h pi): 0.08 ± 0.01 %IA/g
Biodistribution, Pancreas ([1]; 24 h pi): 0.17 ± 0.04 %IA/g
Biodistribution, Spleen ([1]; 24 h pi): 0.43 ± 0.09 %IA/g
Biodistribution, Stomach ([1]; 24 h pi): 0.35 ± 0.21 %IA/g
Background clearance / excretion route ([1]; mouse, in vivo): predominantly cleared via the kidneys
SPECT/CT uptake in CCK2i4svR expressing tumors [2]: Intense uptake
SPECT/CT uptake in wtHEK293 tumors devoid of CCK2i4svR expression [2]: no uptake is evident
Internalized to membrane-bound ratio (HEK293-CCK2i4svR cells): 4.1
Internalized fraction (HEK293-CCK2i4svR cells): 11.12 ± 0.79 % of total added activity
Cell uptake (internalized + membrane-bound) (HEK293-CCK2i4svR cells): 13.81 ± 0.89%

CC(C)(C)C(=O)CN1C(=O)[C@H](NC(=O)Nc2cccc(C(=O)NCCOCCOCCOCCNC(=O)[C@H](CCC(=O)O)NC(=O)CN3CCN(CC(=O)[O-])CCN(CC(=O)[O-])CCN(CC(=O)[O-])CC3)c2)CN(C2CCCCC2)c2ccccc21.[67Ga+3] (stereo in doubt) [[^67Ga]Ga-GAS1]
Biodistribution, Blood ([1]; 1 h pi): 6.53 ± 1.33 %IA/g
Biodistribution, CCK2i4svR(+) Tumor ([1]; 1 h pi): 12.62 ± 1.76 %IA/g
Biodistribution, CCK2i4svR(-) Tumor ([1]; 1 h pi): 1.62 ± 0.12 %IA/g
Biodistribution, Femur ([1]; 1 h pi): 0.97 ± 0.12 %IA/g
Biodistribution, Heart ([1]; 1 h pi): 2.11 ± 0.86 %IA/g
Biodistribution, Intestines ([1]; 1 h pi): 2.33 ± 0.44 %IA/g
Biodistribution, Kidneys ([1]; 1 h pi): 5.78 ± 0.48 %IA/g
Biodistribution, Liver ([1]; 1 h pi): 3.39 ± 0.35 %IA/g
Biodistribution, Lungs ([1]; 1 h pi): 3.63 ± 0.69 %IA/g
Biodistribution, Muscle ([1]; 1 h pi): 0.61 ± 0.07 %IA/g
Biodistribution, Pancreas ([1]; 1 h pi): 2.26 ± 0.18 %IA/g
Biodistribution, Spleen ([1]; 1 h pi): 1.63 ± 0.16 %IA/g
Biodistribution, Stomach ([1]; 1 h pi): 1.09 ± 0.22 %IA/g
Biodistribution, Blood ([1]; 4 h pi): 1.25 ± 0.27 %IA/g
Biodistribution, CCK2i4svR(-) Tumor ([1]; 4 h pi): 0.75 ± 0.19 %IA/g
Biodistribution, Femur ([1]; 4 h pi): 0.29 ± 0.16 %IA/g
Biodistribution, Heart ([1]; 4 h pi): 0.47 ± 0.09 %IA/g
Biodistribution, Intestines ([1]; 4 h pi): 2.84 ± 0.38 %IA/g
Biodistribution, Kidneys ([1]; 4 h pi): 3.59 ± 0.60 %IA/g
Biodistribution, Liver ([1]; 4 h pi): 2.49 ± 0.31 %IA/g
Biodistribution, Lungs ([1]; 4 h pi): 1.19±0.21 %IA/g
Biodistribution, Muscle ([1]; 4 h pi): 0.19±0.07 %IA/g
Biodistribution, Pancreas ([1]; 4 h pi): 0.51 ± 0.09 %IA/g
Biodistribution, Spleen ([1]; 4 h pi): 0.78±0.02 %IA/g
Biodistribution, Stomach ([1]; 4 h pi): 0.37 ± 0.08 %IA/g
Biodistribution, Blood ([1]; 24 h pi): 0.08 ± 0.01 %IA/g
Biodistribution, CCK2i4svR(+) Tumor ([1]; 24 h pi): 2.47 ± 0.41 %IA/g
Biodistribution, CCK2i4svR(-) Tumor ([1]; 24 h pi): 0.00 ± 0.00 %IA/g
Biodistribution, Femur ([1]; 24 h pi): 0.18 ± 0.04 %IA/g
Biodistribution, Heart ([1]; 24 h pi): 0.13 ± 0.01 %IA/g
Biodistribution, Intestines ([1]; 24 h pi): 0.32 ± 0.13 %IA/g
Biodistribution, Kidneys ([1]; 24 h pi): 0.88 ± 0.17 %IA/g
Biodistribution, Liver ([1]; 24 h pi): 0.75 ± 0.08 %IA/g
Biodistribution, Lungs ([1]; 24 h pi): 0.31 ± 0.16 %IA/g
Biodistribution, Muscle ([1]; 24 h pi): 0.05 ± 0.02 %IA/g
Biodistribution, Pancreas ([1]; 24 h pi): 0.22 ± 0.01 %IA/g
Biodistribution, Spleen ([1]; 24 h pi): 0.51 ± 0.12 %IA/g
Biodistribution, Stomach ([1]; 24 h pi): 0.18 ± 0.02 %IA/g
Intact radioligand in blood ([3]; mice blood collected 5 min pi): 93.9 ± 0.6 (3) %
Intact radioligand in urine ([3]; mice urine collected 30 min pi): 80.2 ± 1.0 (3) %
Internalized to membrane-bound ratio (HEK293-CCK2i4svR cells): 0.7
Internalized fraction (HEK293-CCK2i4svR cells): 1.79 ± 0.45 % of total added activity
Cell uptake (internalized + membrane-bound) (HEK293-CCK2i4svR cells): 4.26 ± 0.99%
